Consider four compounds from patent US20100260675A1, “Oxytocin Receptor Antagonists and Their Use for the Treatment of Pulmonary Related Diseases” (priority 2004, published 2010).

Test [1] concerns Oxytocin Receptor (OXTR) mRNA in primary human airway smooth muscle cells. Kind of test: Real Time PCR analysis of oxytocin receptor mRNA in cytokine-stimulated primary human airway smooth muscle cells. It counts as cell-based. The settings on record: for level of OXTR mRNA normalized to 18S mRNA and relative to untreated control (0 hour timepoint): primary HASMC from normal donors, 50 ng/ml; for induced expression of the Oxytocin Receptor normalized to 18S and relative to untreated control (0 hour timepoint): primary HASMC from two normal donors, 10 ng/ml. Here is the method: In order to confirm the microarray finding by an independent means, Real Time PCR technology was employed. Primary human airway smooth muscle cells from “normal” donors were cultured with IL-13 or a naturally occurring mutant form IL-13R130Q (associated with high serum IgE levels) for 0, 6 hours or 18 hours at 50 ng/ml after allowing the cell to rest for 24 hours. Total RNA was isolated, reverse transcribed and used in Real Time PCR analysis for oxytocin receptor using the Applied Biosystems Gene Expression Assay (ID number Hs00168573_m1) on the ABI PRISM® 7900HT Sequence Detection System. At 6 hours, the level of OXTR mRNA normalized to 18S mRNA and relative to untreated control (i.e., 0 hour time point) was 1.95 (Std Dev. 0.41) when cells were stimulated with WT IL-13 and 1.79 (Std Dev. 0.22) when stimulated with R130Q. At 18 hours, the level of OXTR mRNA normalized to 18S mRNA and relative to untreated control (i.e., 0 hour timepoint) was 2.02 (Std Dev. 0.42) when the cells were stimulated with WT IL-13 and 3.58 (Std Dev. 0.74) when stimulated with R130Q.
Primary human airway smooth muscle cells from two “normal” donors were cultured with tumor necrosis factor alpha (TNFα) for 0, 6 hours or 18 hours at 10 ng/ml after resting the cells for 24 hours. Total RNA was isolated, reverse transcribed and used in Real Time PCR analysis for the Oxytocin Receptor. TNFα induced the expression of the Oxytocin Receptor by 4.88 (Std Dev. 1.13) at 6 hours and 7.06 (Std. Dev. 1.42) at the 18-hour time point normalized to 18S and relative to untreated control (i.e., 0 hour timepoint).
A general note: Real-time PCR tracks product formation cycle by cycle.

For test [2], the target named is T1, Oxytocin Receptor on human airway smooth muscle cells (HASMC) (Homo sapiens, UniProt P30559).
T1 construct: the Oxytocin Receptor expressed on the surface of human airway smooth muscle cells is functional; endogenous in cells; host or cells: primary human airway smooth muscle cells (HASMC)
T1 sequence (P30559 1-389): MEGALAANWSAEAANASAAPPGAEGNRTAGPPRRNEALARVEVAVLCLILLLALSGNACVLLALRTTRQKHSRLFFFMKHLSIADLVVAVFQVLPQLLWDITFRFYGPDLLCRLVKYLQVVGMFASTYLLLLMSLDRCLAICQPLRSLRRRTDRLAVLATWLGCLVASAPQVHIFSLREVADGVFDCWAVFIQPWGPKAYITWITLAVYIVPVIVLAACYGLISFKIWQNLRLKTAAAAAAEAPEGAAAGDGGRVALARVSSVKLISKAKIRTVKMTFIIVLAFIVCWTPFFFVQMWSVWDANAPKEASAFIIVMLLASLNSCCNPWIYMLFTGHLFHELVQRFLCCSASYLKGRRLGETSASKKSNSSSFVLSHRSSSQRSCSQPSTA
Nature of the test: Calcium influx in human airway smooth muscle cells after addition of oxytocin. The settings on record: FIG. 4. Format: cell-based. Here is the method: In order to determine whether the Oxytocin Receptor expressed on the surface of human airway smooth muscle cells is functional, the amount of influx of calcium was measured. HASMC were serum starved and then either unstimulated or stimulated with IL-13 (50 ng/ml) for 24 hours. The amount of calcium that mobilized Into the cells was measured after addition of oxytocin (100 nM or 500 nM).

Test [3] has as its system Oxytocin Receptor mRNA in trachea. Kind of test: Oxytocin Receptor RNA expression in trachea, in vivo model of acute asthma (Real Time PCR). The settings on record: mice immunized i.p. day 1 and 8, challenged intranasally days 22-24, trachea day 25. Here is the method:
The RNA expression of Oxytocin Receptor in an in vivo model of acute asthma was tested. The mice were immunized with ovalbumin intraperitoneal on day 1 and day 8 and then challenged intranasally on days 22, 23 and 24. On day 25, the mice were euthanized. The trachea were extracted for RNA isolation and used in Real Time PCR analysis for Oxytocin Receptor.

In the case of “IL-13: wild-type interleukin 13, Th2 derived cytokine used to stimulate airway smooth muscle cells”, the “level of OXTR mRNA normalized to 18S mRNA and relative to untreated control (0 hour timepoint)” value is listed as 1.95 (Std Dev. 0.41) in test [1] (6 hours) and 2.02 (Std Dev. 0.42) in test [1] (18 hours). Moreover, the “effect on oxytocin-induced calcium influx in HASMC” value in test [2] (IL-13 50 ng/ml for 24 hours, at low concentrations of oxytocin) is on record as “further enhances calcium influx”.
`CC[C@H](C)[C@@H]1NC(=O)[C@H](Cc2ccc(O)cc2)NC(=O)[C@@H](N)CSSC[C@@H](C(=O)N2CCC[C@H]2C(=O)N[C@@H](CC(C)C)C(=O)NCC(N)=O)NC(=O)[C@H](CC(N)=O)NC(=O)[C@H](CCC(N)=O)NC1=O` [oxytocin]: the “Ca influx in human airway smooth muscle cells” value in test [2] (serum-starved HASMC, oxytocin 100 nM or 500 nM) is “induces Ca influx”.
As to “ovalbumin: allergen used to immunize and challenge mice in the acute asthma model”, the “Oxytocin Receptor mRNA in trachea compared to PBS control” value in test [3] is 1.5 fold.
On to TNFα, for which the “induced expression of the Oxytocin Receptor normalized to 18S and relative to untreated control (0 hour timepoint)” value in test [1] (18-hour time point) is given as 7.06 (Std. Dev. 1.42); in test [1] (6 hours), 4.88 (Std Dev. 1.13).
